Assay results from ChEMBL document CHEMBL3244206, “Quinazolines as inhibitors of dihydrofolate reductase. 4. Classical analogues of folic and isofolic acids” (J Med Chem, 1977).

How the values were obtained:
[1] = biological target: T1, Dihydrofolate reductase (Enterococcus faecium, UniProt P00380); test: Inhibition of Streptococcus faecium dihydrofolate reductase using dihydrofolate as substrate; details: read-out: I50
T1 sequence (P00380 whole entry): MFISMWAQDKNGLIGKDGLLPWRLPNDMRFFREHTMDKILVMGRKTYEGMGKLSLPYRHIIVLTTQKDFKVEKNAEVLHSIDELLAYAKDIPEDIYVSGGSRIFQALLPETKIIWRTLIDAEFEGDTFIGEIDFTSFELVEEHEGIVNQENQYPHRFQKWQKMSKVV

[2] = test system: L1210; test: Antitumor activity against mouse L1210 cells allografted in mouse assessed as increase in survival at 75 mg/kg administered on day 1 relative to control; format: functional; details: L1210, 24 h
[3] = test system: Mus musculus; test: Toxicity in mouse allografted with mouse L1210 cells assessed as mortality at 75 mg/kg administered on day 1 measured on day 2; format: organism-based; parameters: dose 75 mg/kg; details: in vivo
[4] = test system: L1210; test: Antitumor activity against mouse L1210 cells allografted in mouse assessed as increase in survival at 100 mg/kg administered on day 1 to 5 relative to control; format: functional; details: L1210, 24 h
[5] = test system: L1210; test: Antitumor activity against mouse L1210 cells allografted in mouse assessed as increase in survival at 100 mg/kg administered on day 1 to 3 relative to control; format: functional; details: L1210, 24 h
[6] = test system: L1210; test: Antitumor activity against mouse L1210 cells allografted in mouse assessed as increase in survival at 200 mg/kg administered on day 1 to 3 relative to control; format: functional; details: L1210, 24 h

Compound | IC50 [1] | further results
CCOC(=O)CC[C@H](NC(=O)c1ccc(NCc2ccc3nc(N)nc(N)c3c2C)cc1)C(=O)OCC | 2.4 nM | 
Cc1c(CNc2ccc(C(=O)N[C@@H](CCC(=O)O)C(=O)O)cc2)ccc2nc(N)nc(N)c12 | 2.2 nM | 
CCOC(=O)CC[C@H](NC(=O)c1ccc(NCc2ccc3nc(N)nc(N)c3c2Cl)cc1)C(=O)OCC | 1.7 nM | 
Nc1nc(N)c2c(Cl)c(CNc3ccc(C(=O)N[C@@H](CCC(=O)O)C(=O)O)cc3)ccc2n1 | 0.7 nM | 
Nc1nc(N)c2cc(CN(C=O)c3ccc(C(=O)N[C@@H](CCC(=O)O)C(=O)O)cc3)ccc2n1 |  | survival at 75 mg/kg [2]: 0%; Activity [3]: Toxic
CCOC(=O)CC[C@H](NC(=O)c1ccc(CNc2ccc3nc(N)nc(N)c3c2)cc1)C(=O)OCC | 32 nM | 
CCOC(=O)CC[C@H](NC(=O)c1ccc(CNc2ccc3nc(N)nc(N)c3c2C)cc1)C(=O)OCC | 3.9 nM | 
Cc1c(NCc2ccc(C(=O)N[C@@H](CCC(=O)O)C(=O)O)cc2)ccc2nc(N)nc(N)c12 | 8.3 nM | 
CCOC(=O)CC[C@H](NC(=O)c1ccc(CNc2ccc3nc(N)nc(O)c3c2)cc1)C(=O)OCC | 24000 nM | 
Nc1nc(O)c2cc(NCc3ccc(C(=O)N[C@@H](CCC(=O)O)C(=O)O)cc3)ccc2n1 | 22000 nM | 
CCOC(=O)CC[C@H](NC(=O)c1ccc(CNc2ccc3nc(N)nc(O)c3c2C)cc1)C(=O)OCC | 115000 nM | 
Cc1c(NCc2ccc(C(=O)N[C@@H](CCC(=O)O)C(=O)O)cc2)ccc2nc(N)nc(O)c12 | 5900 nM | 
Nc1nc(N)c2cc(NCc3ccc(C(=O)N[C@@H](CCC(=O)O)C(=O)O)cc3)ccc2n1 | 32 nM | 
Nc1nc(O)c2cc(CN(C=O)c3ccc(C(=O)N[C@@H](CCC(=O)O)C(=O)O)cc3)ccc2n1 |  | survival at 100 mg/kg [4]: 25%; survival at 100 mg/kg [5]: 19%; survival at 200 mg/kg [6]: 15%
Cc1c(CNc2ccc(C(=O)N[C@@H](CC(=O)O)C(=O)O)cc2)ccc2ncnc(N)c12 [METHASQUIN] | 2.5 nM | 
